For nine compounds, GI50 and TGI results are on record in PubChem BioAssay (NCI).

Some test systems named below: SF-539 CNS; T-47D breast; RXF 393 renal; M14 melanoma; OVCAR-8 ovarian; CAKI-1 renal; K-562 leukemia; SN12C renal; NCI-H460 lung; OVCAR-3 ovarian.
Common to all, as to assay: NCI anticancer screen, dose series, 48 h

“And” between values parts separate entries of the source, which are not always exact repeats. Equal values may be shown once.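 In this assay, cells in 96-well plates receive the compound at five concentrations for 48 hours. Endpoints are linearly interpolated between the surrounding concentrations. At the GI50, growth is halved. TGI: total growth inhibition.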

Consider `COc1cc(/C=C\[N+](=O)[O-])ccc1OCc1ccccc1`, for which the GI50 in the experiment on SF-539 CNS was 2.09 µM; in the experiment on T-47D breast it was 2.25 µM; in the experiment with RXF 393 renal, 1.8 µM; in the experiment with M14 melanoma it was 1.65 µM; with OVCAR-8 ovarian, 2.91 µM; in the experiment on CAKI-1 renal, 3.05 µM. In addition, the GI50 was 2.06 µM with K-562 leukemia, 2.77 µM in the experiment with SN12C renal, 3.98 µM in the experiment on NCI-H460 lung and 1.62 µM with OVCAR-3 ovarian. The TGI in the experiment on SF-539 CNS stood at 4.18 µM; in the experiment with T-47D breast it was 7.44 µM; in the experiment on RXF 393 renal, 3.73 µM; in the experiment with M14 melanoma, 4.31 µM; with OVCAR-8 ovarian it was 9.56 µM; with CAKI-1 renal, 13.2 µM. Further, the TGI stood at 11.1 µM in the experiment with K-562 leukemia, 8.42 µM with SN12C renal, 15.9 µM in the experiment on NCI-H460 lung and 3.71 µM with OVCAR-3 ovarian.
`CN(C)N1C(=O)c2ccccc2NC1c1ccccc1` (stereo not given): the TGI with SF-539 CNS, in the experiment with T-47D breast, in the experiment on M14 melanoma, in the experiment with OVCAR-8 ovarian, in the experiment with CAKI-1 renal and in the experiment on SN12C renal was greater than 100 µM each time. Besides, the TGI in the experiment on NCI-H460 lung and in the experiment with OVCAR-3 ovarian was greater than 100 µM in each case.
With `OCCSCc1ccccc1`, the TGI in the experiment on SF-539 CNS, with T-47D breast, with RXF 393 renal, with M14 melanoma, with OVCAR-8 ovarian and in the experiment with CAKI-1 renal was greater than 100 µM throughout. Besides, the TGI with K-562 leukemia, with SN12C renal, in the experiment with NCI-H460 lung and in the experiment with OVCAR-3 ovarian was greater than 100 µM each time.
As to `C#CC1(O)C(COP(=O)(O)OC2CC(n3cc(F)c(=O)[nH]c3=O)OC2CO)OC(n2ccc(N)nc2=O)C1O` (stereo not given), the GI50 was less than 0.0105 µM in the experiment with SF-539 CNS; less than 0.0157 µM in the experiment with T-47D breast; less than 0.0342 µM in the experiment with RXF 393 renal; less than 0.0211 µM with M14 melanoma; less than 0.01 µM in the experiment on OVCAR-8 ovarian; less than 0.01 µM in the experiment with CAKI-1 renal. In addition, the GI50 was 0.0101 µM in the experiment with K-562 leukemia, less than 0.0106 µM with SN12C renal, less than 0.01 µM in the experiment with NCI-H460 lung and 0.031 µM in the experiment on OVCAR-3 ovarian. In addition, the TGI is 0.22 µM in the experiment on SF-539 CNS; greater than 51.7 µM in the experiment on T-47D breast; 2.37 µM in the experiment with RXF 393 renal; 0.774 µM in the experiment with M14 melanoma; 14.5 µM in the experiment with OVCAR-8 ovarian; 0.0813 µM in the experiment with CAKI-1 renal. The results for the TGI with K-562 leukemia, in the experiment on SN12C renal and in the experiment with NCI-H460 lung were greater than 100 µM, greater than 100 µM and greater than 32.1 µM, respectively.
As for `COc1cc2c3c(c1)c1cc(OC)c(OC)cc1c[n+]3CC2`, the TGI in the experiment on SF-539 CNS is 50 µM; with T-47D breast, 34.2 µM and 72.4 µM; in the experiment with RXF 393 renal it was 50 µM and > 100 µM; in the experiment with M14 melanoma, greater than 100 µM; in the experiment on OVCAR-8 ovarian, 50 µM and 43.6 µM; with CAKI-1 renal it was 50 µM and > 100 µM. Besides, the TGI with K-562 leukemia is 50 µM and > 100 µM; with SN12C renal, 15.6 µM and > 100 µM; in the experiment with NCI-H460 lung, 47.8 µM; with OVCAR-3 ovarian, 50 µM and > 100 µM. The GI50 in the experiment with T-47D breast was 6.74 µM; with M14 melanoma, 63.8 µM; with OVCAR-8 ovarian, 1.86 µM; in the experiment on CAKI-1 renal, greater than 100 µM; in the experiment on K-562 leukemia it was 40.5 µM; in the experiment with SN12C renal it was 5.66 µM. Moreover, the GI50 in the experiment on OVCAR-3 ovarian was 17.7 µM.
Turning to `O=C(c1ccc2ncc(-c3nc(NC4CC4)ncc3F)n2c1)N1CCOCC1`, the GI50 with SF-539 CNS was 1.8 µM; in the experiment with T-47D breast, 2 µM; in the experiment with RXF 393 renal, 1.07 µM; in the experiment with M14 melanoma it was 1.9 µM; with OVCAR-8 ovarian, 2.44 µM; in the experiment on CAKI-1 renal it was 1.33 µM. In addition, the GI50 was 3.21 µM with K-562 leukemia, 2.52 µM with SN12C renal, 2.91 µM in the experiment on NCI-H460 lung and 2.21 µM with OVCAR-3 ovarian. Further, the TGI was 4.79 µM in the experiment with SF-539 CNS; 7.49 µM with T-47D breast; 3.02 µM in the experiment on RXF 393 renal; 4.07 µM with M14 melanoma; greater than 100 µM in the experiment on OVCAR-8 ovarian; 62.8 µM in the experiment on CAKI-1 renal. In addition, the TGI was 29 µM with K-562 leukemia, 11.8 µM in the experiment on SN12C renal, greater than 100 µM in the experiment on NCI-H460 lung and 7.22 µM with OVCAR-3 ovarian.
For `O=c1nc(Nc2cccc(Cl)c2)oc2cc(Cl)oc(=O)c12`, the GI50 in the experiment with SF-539 CNS was 4 µM; in the experiment on T-47D breast, 5.29 µM; in the experiment on RXF 393 renal, 3.22 µM; in the experiment on M14 melanoma, 8.37 µM; with OVCAR-8 ovarian, 7.06 µM; with CAKI-1 renal, 5.93 µM. Also, the GI50 is 16.4 µM in the experiment on K-562 leukemia, 10.4 µM in the experiment with SN12C renal, 16.7 µM in the experiment on NCI-H460 lung and 3.48 µM in the experiment on OVCAR-3 ovarian. In addition, the TGI was found to be 21 µM with SF-539 CNS; 27.1 µM with T-47D breast; 8.52 µM with RXF 393 renal; 26.9 µM in the experiment on M14 melanoma; 32.1 µM in the experiment with OVCAR-8 ovarian; 21.5 µM in the experiment with CAKI-1 renal. Besides, the TGI was greater than 100 µM in the experiment on K-562 leukemia, greater than 100 µM in the experiment on SN12C renal, 39.9 µM in the experiment with NCI-H460 lung and 13.3 µM in the experiment on OVCAR-3 ovarian.
`N=C(N=C(N)N)N1CCN(c2ccncc2)CC1`: the GI50 in the experiment on SF-539 CNS is greater than 1000 µM; in the experiment on T-47D breast it was greater than 1000 µM; with M14 melanoma, greater than 1000 µM; in the experiment with OVCAR-8 ovarian, 483 µM; in the experiment on CAKI-1 renal, greater than 1000 µM; with K-562 leukemia it was greater than 1000 µM. For the same compound, the GI50 in the experiment with SN12C renal, in the experiment with NCI-H460 lung and with OVCAR-3 ovarian was greater than 1000 µM throughout. Also, the TGI in the experiment on SF-539 CNS, with T-47D breast, with M14 melanoma, in the experiment on OVCAR-8 ovarian, in the experiment with CAKI-1 renal and in the experiment with K-562 leukemia was greater than 1000 µM in each case. Further, the TGI in the experiment on SN12C renal, in the experiment with NCI-H460 lung and with OVCAR-3 ovarian was greater than 1000 µM in each case.
As to `NC1CCN(c2nc(Nc3cccc(C(F)(F)F)c3)c3c(=O)[nH]ccc3n2)CC1`, the GI50 was 1.77 µM in the experiment with SF-539 CNS; 1.56 µM in the experiment on T-47D breast; 1.31 µM in the experiment with RXF 393 renal; 1.01 µM in the experiment with M14 melanoma; 2.06 µM with OVCAR-8 ovarian; 0.444 µM in the experiment with CAKI-1 renal. Further, the results for the GI50 with K-562 leukemia, in the experiment on SN12C renal and in the experiment on NCI-H460 lung were 1.18 µM, 1.37 µM and 1.26 µM, respectively. Besides, the TGI with SF-539 CNS stood at 3.26 µM; in the experiment with T-47D breast, 3.26 µM; in the experiment on RXF 393 renal it was 2.67 µM; with M14 melanoma, 2.23 µM; in the experiment with OVCAR-8 ovarian, 4.91 µM; in the experiment with CAKI-1 renal it was 1.88 µM. Besides, the TGI in the experiment with K-562 leukemia was determined as 3.21 µM; in the experiment with SN12C renal, 2.8 µM; with NCI-H460 lung it was 2.8 µM.
